Structures are written as SMILES.

The first experiment relates to Puccinia recondita f. sp. tritici. Kind of experiment: Test I: wheat leaf rust, preventive spray on wheat seedlings, visual disease rating. Particulars: 192 h, read-out: Test I rating (% disease control).
Take `Cc1nn(C)c(Nc2c(F)cc(F)cc2F)c1-c1ccc(F)cc1Br` [Compound 266, 4-(2-bromo-4-fluorophenyl)-1,3-dimethyl-N-(2,4,6-trifluorophenyl)-1H-pyrazol-5-amine]: the pest or weed control at 200 µg/mL was 100%.
In the case of `Cc1nn(C)c(Nc2ccc(F)cc2Cl)c1-c1c(F)cccc1Cl` [Compound 193, N-(2-chloro-4-fluorophenyl)-4-(2-chloro-6-fluorophenyl)-1,3-dimethyl-1H-pyrazol-5-amine], the pest or weed control at 200 µg/mL was 99%.
Same read-out and setting: with `Cc1nn(C)c(Nc2c(F)cc(F)cc2Cl)c1-c1c(F)cccc1F` [Compound 297, N-(2-chloro-4,6-difluorophenyl)-4-(2,6-difluorophenyl)-1,3-dimethyl-1H-pyrazol-5-amine] the figure was 100%.

The same experiment, now with this note: wheat leaf rust, preventive spray; 100 = 100% disease control, 0 = no control.
Regarding `Cc1nn(C)c(Oc2cc(F)c(C#N)cc2F)c1-c1c(F)cc(F)cc1F` [compound 99], the “Test I rating (% disease control)” value is listed as 100%.
Same read-out and setting: with `COc1ccc(Nc2c(-c3c(F)cc(F)cc3F)c(C)nn2C)cc1OC` [compound 93] the figure was 9%.
Still for that read-out and setting: for `COc1cc(F)c(Nc2c(-c3c(F)cc(OC)cc3F)c(C)nn2C)c(F)c1` [compound 83] the value was 96%.

The experiment is the same for the next values; noted with them: wheat leaf rust, preventive; 100 = 100% disease control, 0 = no control relative to controls.
Regarding `COc1ccc(Cl)c(Nc2c(-c3ccc(F)cc3F)c(C)nn2C)c1` [compound 227], the “Test I rating (% disease control)” value stood at 74%.
With `Cc1nn(C)c(Oc2cc(C#N)c(C#N)cc2Cl)c1-c1ccc(F)cc1Cl` [compound 150], the “Test I rating (% disease control)” value was determined as 74%.

The next experiment has as its system Botrytis cinerea. Kind of experiment: Test B: tomato Botrytis, preventive spray on tomato seedlings, visual disease rating. The note with it: Botrytis cinerea, in Solanum lycopersicum, 120 h, read-out: Test B rating (% disease control).
Take `Cc1nn(C)c(Nc2c(F)cc(F)cc2F)c1-c1ccc(F)cc1Br` [Compound 266, 4-(2-bromo-4-fluorophenyl)-1,3-dimethyl-N-(2,4,6-trifluorophenyl)-1H-pyrazol-5-amine]: the pest or weed control at 200 µg/mL came to 100%.
Still for that read-out and setting: with `Cc1nn(C)c(Nc2ccc(F)cc2Cl)c1-c1c(F)cccc1Cl` [Compound 193, N-(2-chloro-4-fluorophenyl)-4-(2-chloro-6-fluorophenyl)-1,3-dimethyl-1H-pyrazol-5-amine] the figure was 99%; with `Cc1nn(C)c(Nc2c(F)cc(F)cc2Cl)c1-c1c(F)cccc1F` [Compound 297, N-(2-chloro-4,6-difluorophenyl)-4-(2,6-difluorophenyl)-1,3-dimethyl-1H-pyrazol-5-amine], 100%.

Still in this experiment, the particulars now being: tomato Botrytis, preventive spray; 100 = 100% disease control, 0 = no control.
Consider `Cc1nn(C)c(Oc2cc(F)c(C#N)cc2F)c1-c1c(F)cc(F)cc1F` [compound 99], for which the “Test B rating (% disease control)” value was 100%.
On the same count and under the same terms, with `COc1ccc(Nc2c(-c3c(F)cc(F)cc3F)c(C)nn2C)cc1OC` [compound 93] the figure was 41%; with `COc1cc(F)c(Nc2c(-c3c(F)cc(OC)cc3F)c(C)nn2C)c(F)c1` [compound 83], 100%.

Still in this experiment, the particulars now being: tomato Botrytis; 100 = 100% disease control, 0 = no control relative to controls.
Take `COc1ccc(Cl)c(Nc2c(-c3ccc(F)cc3F)c(C)nn2C)c1` [compound 227]: the “Test B rating (% disease control)” value is recorded as 87%.
Same read-out and setting: for `Cc1nn(C)c(Oc2cc(C#N)c(C#N)cc2Cl)c1-c1ccc(F)cc1Cl` [compound 150] the value was 19%.

The next experiment concerns Septoria tritici. Kind of experiment: Test G: wheat leaf blotch, preventive spray on wheat seedlings, visual disease rating. The note with it: Zymoseptoria tritici, in Triticum aestivum, 504 h, read-out: Test G rating (% disease control).
For the molecule `Cc1nn(C)c(Nc2c(F)cc(F)cc2F)c1-c1ccc(F)cc1Br` [Compound 266, 4-(2-bromo-4-fluorophenyl)-1,3-dimethyl-N-(2,4,6-trifluorophenyl)-1H-pyrazol-5-amine], the pest or weed control at 200 µg/mL was determined as 100%.
Same read-out and setting: for `Cc1nn(C)c(Nc2ccc(F)cc2Cl)c1-c1c(F)cccc1Cl` [Compound 193, N-(2-chloro-4-fluorophenyl)-4-(2-chloro-6-fluorophenyl)-1,3-dimethyl-1H-pyrazol-5-amine] the value was 100%; for `Cc1nn(C)c(Nc2c(F)cc(F)cc2Cl)c1-c1c(F)cccc1F` [Compound 297, N-(2-chloro-4,6-difluorophenyl)-4-(2,6-difluorophenyl)-1,3-dimethyl-1H-pyrazol-5-amine], 100%.

Still in this experiment, the particulars now being: wheat leaf blotch, preventive spray; 100 = 100% disease control, 0 = no control.
On to `Cc1nn(C)c(Oc2cc(F)c(C#N)cc2F)c1-c1c(F)cc(F)cc1F` [compound 99], for which the “Test G rating (% disease control)” value is given as 99%.
On the same count and under the same terms, with `COc1ccc(Nc2c(-c3c(F)cc(F)cc3F)c(C)nn2C)cc1OC` [compound 93] the figure was 77%.
For `COc1cc(F)c(Nc2c(-c3c(F)cc(OC)cc3F)c(C)nn2C)c(F)c1` [compound 83], the “Test G rating (% disease control)” value was determined as 99%.

Still in this experiment, the particulars now being: wheat leaf blotch; 100 = 100% disease control, 0 = no control relative to controls.
For the molecule `COc1ccc(Cl)c(Nc2c(-c3ccc(F)cc3F)c(C)nn2C)c1` [compound 227], the “Test G rating (% disease control)” value stood at 99%.
As for `Cc1nn(C)c(Oc2cc(C#N)c(C#N)cc2Cl)c1-c1ccc(F)cc1Cl` [compound 150], the “Test G rating (% disease control)” value is 7%.

The subject of a further experiment is Alternaria solani. Kind of experiment: Test C: tomato early blight, preventive spray on tomato seedlings, visual disease rating. The note with it: Alternaria solani, in Solanum lycopersicum, 168 h, read-out: Test C rating (% disease control).
Regarding `Cc1nn(C)c(Nc2c(F)cc(F)cc2F)c1-c1ccc(F)cc1Br` [Compound 266, 4-(2-bromo-4-fluorophenyl)-1,3-dimethyl-N-(2,4,6-trifluorophenyl)-1H-pyrazol-5-amine], the pest or weed control at 200 µg/mL came to 100%.
On the same count and under the same terms, for `Cc1nn(C)c(Nc2ccc(F)cc2Cl)c1-c1c(F)cccc1Cl` [Compound 193, N-(2-chloro-4-fluorophenyl)-4-(2-chloro-6-fluorophenyl)-1,3-dimethyl-1H-pyrazol-5-amine] the value was 100%; for `Cc1nn(C)c(Nc2c(F)cc(F)cc2Cl)c1-c1c(F)cccc1F` [Compound 297, N-(2-chloro-4,6-difluorophenyl)-4-(2,6-difluorophenyl)-1,3-dimethyl-1H-pyrazol-5-amine], 99%.

Staying with this experiment, now noted: tomato early blight, preventive spray; 100 = 100% disease control, 0 = no control.
In the case of `Cc1nn(C)c(Oc2cc(F)c(C#N)cc2F)c1-c1c(F)cc(F)cc1F` [compound 99], the “Test C rating (% disease control)” value was found to be 99%.
`COc1ccc(Nc2c(-c3c(F)cc(F)cc3F)c(C)nn2C)cc1OC` [compound 93]: the “Test C rating (% disease control)” value is 0%.
Regarding `COc1cc(F)c(Nc2c(-c3c(F)cc(OC)cc3F)c(C)nn2C)c(F)c1` [compound 83], the “Test C rating (% disease control)” value is 100%.

The same experiment, now with this note: tomato early blight; 100 = 100% disease control, 0 = no control relative to controls.
Turning to `COc1ccc(Cl)c(Nc2c(-c3ccc(F)cc3F)c(C)nn2C)c1` [compound 227], the “Test C rating (% disease control)” value is 0%.
Still for that read-out and setting: with `Cc1nn(C)c(Oc2cc(C#N)c(C#N)cc2Cl)c1-c1ccc(F)cc1Cl` [compound 150] the figure was 0%.

Another experiment has as its system Erysiphe graminis f sp. tritici. Kind of experiment: Test J: wheat powdery mildew, preventive spray on wheat seedlings, visual disease rating. The note with it: Blumeria graminis, in Triticum aestivum, 192 h, read-out: Test J rating (% disease control).
As to `Cc1nn(C)c(Nc2c(F)cc(F)cc2F)c1-c1ccc(F)cc1Br` [Compound 266, 4-(2-bromo-4-fluorophenyl)-1,3-dimethyl-N-(2,4,6-trifluorophenyl)-1H-pyrazol-5-amine], the pest or weed control at 200 µg/mL turned out to be 100%.
Still for that read-out and setting: for `Cc1nn(C)c(Nc2ccc(F)cc2Cl)c1-c1c(F)cccc1Cl` [Compound 193, N-(2-chloro-4-fluorophenyl)-4-(2-chloro-6-fluorophenyl)-1,3-dimethyl-1H-pyrazol-5-amine] the value was 100%; for `Cc1nn(C)c(Nc2c(F)cc(F)cc2Cl)c1-c1c(F)cccc1F` [Compound 297, N-(2-chloro-4,6-difluorophenyl)-4-(2,6-difluorophenyl)-1,3-dimethyl-1H-pyrazol-5-amine], 100%.

Staying with this experiment, now noted: wheat powdery mildew, preventive spray; 100 = 100% disease control, 0 = no control.
`Cc1nn(C)c(Oc2cc(F)c(C#N)cc2F)c1-c1c(F)cc(F)cc1F` [compound 99]: the “Test J rating (% disease control)” value amounted to 100%.
On the same count and under the same terms, for `COc1ccc(Nc2c(-c3c(F)cc(F)cc3F)c(C)nn2C)cc1OC` [compound 93] the value was 0%; for `COc1cc(F)c(Nc2c(-c3c(F)cc(OC)cc3F)c(C)nn2C)c(F)c1` [compound 83], 94%.

Staying with this experiment, now noted: wheat powdery mildew; 100 = 100% disease control, 0 = no control relative to controls.
For `COc1ccc(Cl)c(Nc2c(-c3ccc(F)cc3F)c(C)nn2C)c1` [compound 227], the “Test J rating (% disease control)” value is 98%.
The same measure, in the same setting: with `Cc1nn(C)c(Oc2cc(C#N)c(C#N)cc2Cl)c1-c1ccc(F)cc1Cl` [compound 150] the figure was 50%.

The next experiment concerns Septoria nodorum. Kind of experiment: Test F: Septoria glume blotch, preventive spray on wheat seedlings, visual disease rating. The note with it: Parastagonospora nodorum, in Triticum aestivum, 192 h, read-out: Test F rating (% disease control).
Regarding `Cc1nn(C)c(Nc2c(F)cc(F)cc2F)c1-c1ccc(F)cc1Br` [Compound 266, 4-(2-bromo-4-fluorophenyl)-1,3-dimethyl-N-(2,4,6-trifluorophenyl)-1H-pyrazol-5-amine], the pest or weed control at 200 µg/mL is 98%.
Still for that read-out and setting: for `Cc1nn(C)c(Nc2ccc(F)cc2Cl)c1-c1c(F)cccc1Cl` [Compound 193, N-(2-chloro-4-fluorophenyl)-4-(2-chloro-6-fluorophenyl)-1,3-dimethyl-1H-pyrazol-5-amine] the value was 0%.
In the case of `Cc1nn(C)c(Nc2c(F)cc(F)cc2Cl)c1-c1c(F)cccc1F` [Compound 297, N-(2-chloro-4,6-difluorophenyl)-4-(2,6-difluorophenyl)-1,3-dimethyl-1H-pyrazol-5-amine], the pest or weed control at 200 µg/mL was 90%.

Staying with this experiment, now noted: Septoria glume blotch on wheat, preventive spray; 100 = 100% disease control, 0 = no control.
Turning to `Cc1nn(C)c(Oc2cc(F)c(C#N)cc2F)c1-c1c(F)cc(F)cc1F` [compound 99], the “Test F rating (% disease control)” value came out at 100%.
Take `COc1ccc(Nc2c(-c3c(F)cc(F)cc3F)c(C)nn2C)cc1OC` [compound 93]: the “Test F rating (% disease control)” value is 0%.
On to `COc1cc(F)c(Nc2c(-c3c(F)cc(OC)cc3F)c(C)nn2C)c(F)c1` [compound 83], for which the “Test F rating (% disease control)” value amounted to 89%.

Still in this experiment, the particulars now being: Septoria glume blotch; 100 = 100% disease control, 0 = no control relative to controls.
In the case of `COc1ccc(Cl)c(Nc2c(-c3ccc(F)cc3F)c(C)nn2C)c1` [compound 227], the “Test F rating (% disease control)” value stood at 0%.
Turning to `Cc1nn(C)c(Oc2cc(C#N)c(C#N)cc2Cl)c1-c1ccc(F)cc1Cl` [compound 150], the “Test F rating (% disease control)” value is 60%.

Another experiment has as its system Puccinia recondita f. sp. tritici. Kind of experiment: Test H: wheat leaf rust, curative spray on inoculated wheat seedlings, visual disease rating. Particulars: 144 h, read-out: Test H rating (% disease control).
As to `Cc1nn(C)c(Nc2c(F)cc(F)cc2F)c1-c1ccc(F)cc1Br` [Compound 266, 4-(2-bromo-4-fluorophenyl)-1,3-dimethyl-N-(2,4,6-trifluorophenyl)-1H-pyrazol-5-amine], the pest or weed control at 200 µg/mL was found to be 0%.
Regarding `Cc1nn(C)c(Nc2ccc(F)cc2Cl)c1-c1c(F)cccc1Cl` [Compound 193, N-(2-chloro-4-fluorophenyl)-4-(2-chloro-6-fluorophenyl)-1,3-dimethyl-1H-pyrazol-5-amine], the pest or weed control at 200 µg/mL was determined as 32%.
On the same count and under the same terms, for `Cc1nn(C)c(Nc2c(F)cc(F)cc2Cl)c1-c1c(F)cccc1F` [Compound 297, N-(2-chloro-4,6-difluorophenyl)-4-(2,6-difluorophenyl)-1,3-dimethyl-1H-pyrazol-5-amine] the value was 0%.

Staying with this experiment, now noted: wheat leaf rust, curative spray; 100 = 100% disease control, 0 = no control.
With `Cc1nn(C)c(Oc2cc(F)c(C#N)cc2F)c1-c1c(F)cc(F)cc1F` [compound 99], the “Test H rating (% disease control)” value is listed as 40%.
On the same count and under the same terms, for `COc1ccc(Nc2c(-c3c(F)cc(F)cc3F)c(C)nn2C)cc1OC` [compound 93] the value was 0%.
`COc1cc(F)c(Nc2c(-c3c(F)cc(OC)cc3F)c(C)nn2C)c(F)c1` [compound 83]: the “Test H rating (% disease control)” value came to 99%.

Staying with this experiment, now noted: wheat leaf rust, curative; 100 = 100% disease control, 0 = no control relative to controls.
On to `COc1ccc(Cl)c(Nc2c(-c3ccc(F)cc3F)c(C)nn2C)c1` [compound 227], for which the “Test H rating (% disease control)” value was 0%.
Regarding `Cc1nn(C)c(Oc2cc(C#N)c(C#N)cc2Cl)c1-c1ccc(F)cc1Cl` [compound 150], the “Test H rating (% disease control)” value is reported as 0%.
